# Laboratory results: publication PMC4038554, “Human CD4^+ T Cell Responses to the Dog Major Allergen Can f 1 and Its Human Homologue Tear Lipocalin Resemble Each Other” (PLoS ONE, 2014)
# What was measured:
# DRB1*0101 = DRB1*0101 (Homo sapiens, UniProt P01903+P01911, A100R/D57E/F55L/F60I/F76Y/I96L/L162R/M171V/P40L/Q125E/R42F/V115G/Y59C); test: HLA class II peptide-binding assay (competitive ELISA); details: immunopurified HLA, reference peptide IC50 3 nM, ratio ≤20 high affinity, 20–200 moderate affinity
# DRB1*1501 = DRB1*1501 (Homo sapiens, UniProt P01903+P01911); test: as above; details: immunopurified HLA, reference peptide IC50 775 nM, ratio ≤20 high affinity, 20–200 moderate affinity
# DRB4 = test: as above; design: species or system human; details: DRB4; competitive ELISA, immunopurified HLA; reference peptide IC50 8 nM; ratio ≤20 high affinity, 20–200 moderate affinity
# DRB5 = test: as above; design: species or system human; details: DRB5; competitive ELISA, immunopurified HLA; reference peptide IC50 7 nM; ratio ≤20 high affinity, 20–200 moderate affinity
# DRB3 = test: as above; design: species or system human; details: DRB3; competitive ELISA, immunopurified HLA; reference peptide IC50 60 nM; ratio ≤20 high affinity, 20–200 moderate affinity
# DRB1*1101 = DRB1*1101 (Homo sapiens, UniProt P01903+P01911, A100R/A169T/A87E/I96F/K41T/L162R/M171V/P40S/Q125H/Q178H/Q39Y/Q99D/R42S/S66Y/T262R/V115G/W38E); test: as above; details: immunopurified HLA, reference peptide IC50 50 nM, ratio ≤20 high affinity, 20–200 moderate affinity
# DRB1*0301 = DRB1*0301 (Homo sapiens, UniProt P01903+P01911, A100K/A102G/A103R/A169T/F55Y/I96L/K41T/L162R/M171V/P40S/Q125H/Q178H/Q39Y/R42S/S66N/T106N/T262R/W38E/Y61H); test: as above; details: immunopurified HLA, reference peptide IC50 423 nM, ratio ≤20 high affinity, 20–200 moderate affinity
# DRB1*1301 = DRB1*1301 (Homo sapiens, UniProt P01903+P01911, A100E/A169T/K41T/L162R/M171V/P40S/Q125H/Q178H/Q39Y/Q99D/R42S/S66N/T262R/W38E/Y61H); test: as above; details: immunopurified HLA, reference peptide IC50 208 nM, ratio ≤20 high affinity, 20–200 moderate affinity
# DRB1*0401 = DRB1*0401 (Homo sapiens, UniProt P01903+P01911, A100K/A169T/F76Y/I96L/K127E/L162R/M171V/N62H/P40V/Q125Y/R42H/S133A/S149N/S66Y/V115G/V209L/W38E); test: as above; details: immunopurified HLA, reference peptide IC50 8 nM, ratio ≤20 high affinity, 20–200 moderate affinity
# DRB1*0701 = DRB1*0701 (Homo sapiens, UniProt P01903+P01911, A100R/A102G/A103Q/D57E/D86V/E43K/F76Y/K127E/L162R/M171V/P40G/Q125H/Q99D/R33Q/R42Y/R54Q/S133A/S66F/T210M/V115G/Y107V/Y59L/Y89S); test: as above; details: immunopurified HLA, reference peptide IC50 5 nM, ratio ≤20 high affinity, 20–200 moderate affinity
# [1] = test system: CD25-depleted PBMCs (CD4+ T cells); test: Generation of peptide-specific CD4+ T cell lines with the split-well method (frequency of specific TCLs); type: cell-based, human; details: peptides at 2 µM, 10^5 PBMCs per well, mean±SEM, SEM
# Protocol: After isolating peripheral-blood mononuclear cells (PBMCs) by Ficoll-Paque Plus density gradient centrifugation (GE Healthcare Biosciences, Uppsala, Sweden), CD4^+CD25high regulatory T cells were depleted with anti-CD25-magnetic beads (Miltenyi Biotec, Bergisch Gladbach, Germany), to enhance the induction of both autoreactive and allergen-reactive CD4^+ T cell responses, as previously described, [34].The CD25-depleted PBMCs were seeded in 96-well U-bottomed plates (Corning Incorporated, Corning, USA; 10^5 PBMCs per well) in the presence of pooled Can f 1 or TL peptides (each peptide at 2 µM, 30 wells per a peptide pool), or the HA peptide (30 wells) in a 150 µl volume of RPMI 1640 culture medium supplemented with 2 mM L-glutamine, 20 µM 2-mercaptoethanol, 1 mM sodium pyruvate, nonessential amino acids, 100 IU/ml penicillin, 100 µg/ml streptomycin, 10 mM HEPES (all from Lonza, Verviers, Belgium) and 5% inactivated human AB serum (Sigma-Aldrich, St. Louis, MO). On day 5, 50 µl of fresh medium supplemented with 10 IU/ml of IL-2 (Strathmann Biotech, Hannover, Germany) was added to the cultures. On day 7, half of the culture medium was replaced without IL-2. On day 10, half of the cells in the cultures were split into daughter plates for testing specificity by stimulating the cells with or without the pooled peptides (each peptide at 2 µM) together with autologous γ-irradiated (3000 rad) PBMCs (5×10^5) as antigen-presenting cells. After an incubation of 72 h, [3H]thymidine was added (1 µCi per well; GE Healthcare, Little Chalfont, UK), and after an additional 16 h, the cells were harvested onto glass fiber filters on day 14 (Wallac, Turku, Finland). Radioactivity was measured by scintillation counting (Wallac Micro Beta 1540) and the results were expressed as counts per minute (CPM). The stimulation indices (SI; CPM in the presence of antigen divided by CPM in the absence of antigen) and CPM differences between stimulated and unstimulated wells (ΔCPM) were determined. On the same day, positive cultures (ΔCPM>2000 and SI>2) were restimulated in 48-well plates with autologous γ-irradiated PBMCs (10^6/well), 2 µM of the peptides and 25 IU/ml of IL-2. On day 28, the established TCLs were propagated once more with peptides, IL-2 and PBMCs. After stimulations, half of the culture medium was replaced with fresh medium supplemented with IL-2 every 2–3 days. The peptide specificity of TCLs was defined as described below.
# T cell proliferation assays were set in duplicates in 96-well U-bottomed plates with 2.5×10^4 cultured T cells, 5×10^4 autologous γ-irradiated (3000 rad) PBMCs as APCs, and antigens as indicated. In order to determine the epitope specificity of the established TCLs induced with peptide pools, the T cell lines were tested with each of the three individual peptides in the pool at 10 µM on day 28. Proliferation was measured by radionuclide uptake (see above). […] On day 42, peptide-specific TCLs were tested with individual Can f 1 peptides, as well as their TL homologues, at several concentrations up to 10 µM. The functional T cell receptor (TCR) avidities of the TCLs for a peptide were assessed by determining effective concentration 50 (EC50) values (i.e., the concentration of a peptide needed to induce a half-maximal proliferative response) from the dose-response curves of individual TCLs.
Sequence,relative binding ratio (IC50 of the test peptide divided by IC50 of the reference peptide) (DRB1*0101),relative binding ratio (IC50 of the test peptide divided by IC50 of the reference peptide) (DRB1*1501),relative binding ratio (IC50 of the test peptide divided by IC50 of the reference peptide) (DRB4),relative binding ratio (IC50 of the test peptide divided by IC50 of the reference peptide) (DRB5),relative binding ratio (IC50 of the test peptide divided by IC50 of the reference peptide) (DRB3),relative binding ratio (IC50 of the test peptide divided by IC50 of the reference peptide) (DRB1*1101),relative binding ratio (IC50 of the test peptide divided by IC50 of the reference peptide) (DRB1*0301),relative binding ratio (IC50 of the test peptide divided by IC50 of the reference peptide) (DRB1*1301),relative binding ratio (IC50 of the test peptide divided by IC50 of the reference peptide) (DRB1*0401),relative binding ratio (IC50 of the test peptide divided by IC50 of the reference peptide) (DRB1*0701),positive specific TCLs out of 30 replicate wells per subject ([1]; allergic subjects) [%],positive specific TCLs out of 30 replicate wells per subject ([1]; nonallergic subjects) [%]
"KPDSVTPMILKAQKGGNL [pC2, Can f 1 peptide p31–48]",141,> 13,> 1 179,144,1,11,1,26,72,> 1 874,–,–
"KPVRGVKLVGRDPKNNL [pTL7, Tear lipocalin peptide p108–124]",> 3844,> 13,> 1 179,> 1 443,> 167,105,8,236,> 1 260,> 1 874,–,–
"LEAKITMLTNGQCQNIT [pC3, Can f 1 peptide p48–64]",4,2,> 1 179,339,> 167,89,33,471,50,103,–,–
"LEAKVTMLISGRCQEVK [pTL3, Tear lipocalin peptide p49–65]",2,1,312,4,8,5,0.4,3,82,0.2,1.89±0.57,4.2±0.68
"MNLESVTPMTLTTLEGGNL [pTL2, Tear lipocalin peptide p31–49]",15,> 13,> 1 179,645,> 167,> 200,> 236,> 481,436,55,–,–
"PGKYTADGGKHVAYII [pTL4, Tear lipocalin peptide p74–89]",17,> 13,> 1 179,433,2,0.2,> 236,> 481,31,65,–,–
"RQIRMAKLLGRDPEQSQ [pC7, Can f 1 peptide p107–123]",66,> 13,94,1,> 167,92,4,2,661,> 1 874,–,–
